This passage reports IC50 results from patent US20250099478A1, “PLASMA KALLIKREIN INHIBITORS” (Merck Sharp & Dohme LLC, priority 2022, published 2025).

The target of one assay is T1, Human plasma kallikrein (Homo sapiens, UniProt P03952).
T1 construct: yields a heavy chain (371 amino acids) and a light chain (248 amino acids); purchased Enzyme Research Laboratories
Description: Plasma Kallikrein Assay. Format: biochemical. To be noted: purified Human plasma kallikrein 0.5 nM, substrate Acetyl-K-P-R-AFC; read-out: PKal IC50. In a few lines:
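Purified human plasma kallikrein (0.5 nM) hydrolysing fluorogenic Acetyl-K-P-R-AFC ([…]) in 50 mM HEPES pH 7.4, 150 mM NaCl, 5 mM CaCl2, 0.1% PEG 8000, at rt or 37 °C after enzyme–inhibitor equilibration. IC50 from four-parameter logistic fit; Ki via Cheng–Prusoff.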

The next assay deals with T2, human factor XIa (Homo sapiens, UniProt P03951).
T2 construct: with human (0.04 nM) factor XIa
T2 sequence (P03951 388-625 limits assumed): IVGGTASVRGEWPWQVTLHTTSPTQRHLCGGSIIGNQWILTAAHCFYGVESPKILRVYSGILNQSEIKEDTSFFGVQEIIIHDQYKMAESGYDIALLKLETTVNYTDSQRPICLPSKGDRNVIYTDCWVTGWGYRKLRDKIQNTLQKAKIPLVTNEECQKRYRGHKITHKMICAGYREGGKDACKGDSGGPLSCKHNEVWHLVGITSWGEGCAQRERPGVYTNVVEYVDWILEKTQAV
T2 sequence (P03951 19-387 partner limits assumed): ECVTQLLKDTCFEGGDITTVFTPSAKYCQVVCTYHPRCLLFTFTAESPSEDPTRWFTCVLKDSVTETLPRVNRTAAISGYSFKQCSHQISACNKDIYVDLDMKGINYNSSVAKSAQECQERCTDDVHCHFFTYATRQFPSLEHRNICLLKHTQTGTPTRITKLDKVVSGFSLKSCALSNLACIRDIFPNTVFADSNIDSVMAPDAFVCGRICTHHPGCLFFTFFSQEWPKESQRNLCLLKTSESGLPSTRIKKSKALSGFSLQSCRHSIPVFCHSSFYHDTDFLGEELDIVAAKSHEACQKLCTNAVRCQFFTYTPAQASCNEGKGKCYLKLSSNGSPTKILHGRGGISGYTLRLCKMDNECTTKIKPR
Description: Factor XIa Assay. Type of assay: biochemical. To be noted: human factor XIa 0.04 nM, substrate GPR-AFC, 25° C.

T1 sequence (P03952 391-638 limits assumed): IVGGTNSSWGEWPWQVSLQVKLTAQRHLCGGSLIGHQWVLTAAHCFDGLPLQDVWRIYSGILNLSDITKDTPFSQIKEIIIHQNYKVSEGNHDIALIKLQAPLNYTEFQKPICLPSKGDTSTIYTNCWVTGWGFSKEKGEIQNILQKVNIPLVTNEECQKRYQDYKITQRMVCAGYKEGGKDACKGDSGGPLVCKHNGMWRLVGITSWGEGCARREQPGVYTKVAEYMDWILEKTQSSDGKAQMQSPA
T1 sequence (P03952 20-390 partner limits assumed): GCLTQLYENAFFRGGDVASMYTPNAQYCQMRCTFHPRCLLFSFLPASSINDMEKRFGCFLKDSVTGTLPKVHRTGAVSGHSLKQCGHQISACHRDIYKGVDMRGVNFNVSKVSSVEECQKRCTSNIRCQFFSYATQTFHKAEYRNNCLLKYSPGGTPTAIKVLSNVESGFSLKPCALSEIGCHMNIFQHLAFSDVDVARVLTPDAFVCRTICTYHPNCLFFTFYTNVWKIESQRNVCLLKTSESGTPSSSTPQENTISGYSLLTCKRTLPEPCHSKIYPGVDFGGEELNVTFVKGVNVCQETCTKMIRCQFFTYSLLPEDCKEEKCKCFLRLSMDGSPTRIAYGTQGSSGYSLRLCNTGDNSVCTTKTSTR

Turning to `CC[C@H](c1cc(C)c2nc[nH]c2c1)c1n[nH]c(C(=O)N2CCC[C@@]3(C2)OC(=O)Nc2ccc(Cl)c(F)c23)n1` [Example 110, (R)-6-Chloro-5-fluoro-1′-(3-((R)-1-(4-methyl-1H-benzo[d]imidazol-6-yl)propyl)-1H-1,2,4-triazole-5-carbonyl)spiro[benzo[d][1.3]oxazine-4,3′-piperidin]-2(1H)-one], the half-inhibitory concentration (IC50) – broadly, the concentration that inhibits the measured activity by half – at Human plasma kallikrein was found to be 1 nM; on human factor XIa it was 1220 nM.
The corresponding values for `Cc1cc(Cc2nnc(C(=O)N3CCC[C@@]4(C3)OC(=O)Nc3ccc(Cl)c(F)c34)[nH]2)cc2[nH]ncc12` [Example 124, (R)-6-Chloro-5-fluoro-1′-(5-((4-methyl-1H-indazol-6-yl)methyl)-4H-1,2,4-triazole-3-carbonyl)spiro[benzo[d][1,3]oxazine-4,3′-piperidin]-2(1H)-one] are 13.5 nM and 7760 nM.
The corresponding values for `COCC(c1ccccc1)c1n[nH]c(C(=O)N2CCC[C@@]3(C2)OC(=O)Nc2ccc(Cl)c(F)c23)n1` (stereo partly drawn) [Example 130, (4R)-6-Chloro-5-fluoro-1′-(3-(2-methoxy-1-phenylethyl)-1H-1,2,4-triazole-5-carbonyl)spiro[benzo[d][1,3]oxazine-4,3′-piperidin]-2(1H)-one] are 5.3 nM and 1360 nM.
